Literature values as cited in patent publication US20250295115A1, “USE OF HERBICIDAL COMPOSITIONS BASED ON L-GLUFOSINATE IN TOLERANT FIELD CROPS” (BASF SE, priority 2017, published 2025).

Test system: perennial weeds and brush
Details: as taught by U.S. Pat. No. 4,265,654

CP(=O)(O)CC[C@H](N)C(=O)O (single isomer, unassigned) [L-isomer]
Effectiveness compared with the racemic acid: twice as effective
